Experimental data from patent publication US20150011466A1, “APJ Receptor Compounds” (priority 2012, published 2015).
Where a SMILES comes first, the peptide text is derived from it. [ ]: non-standard residue; d: D form. The star is where a group is joined. Palmitoyl = CCCCCCCCCCCCCCCC(=O)*

These compounds were tested against T1, APJ receptor (Homo sapiens, UniProt P35414) (assay: HTRF cAMP assay, inhibition of NKH477 stimulated cAMP in Human TRex cells expressing APJ upon doxycycline induction (APJ-hTREX)). Conditions: read-out: % IA (@ 300 nM).
T1 construct: expressed in transfected cells; host or cells: Human TRex cells (doxycycline-inducible)
T1 sequence (P35414 1-380): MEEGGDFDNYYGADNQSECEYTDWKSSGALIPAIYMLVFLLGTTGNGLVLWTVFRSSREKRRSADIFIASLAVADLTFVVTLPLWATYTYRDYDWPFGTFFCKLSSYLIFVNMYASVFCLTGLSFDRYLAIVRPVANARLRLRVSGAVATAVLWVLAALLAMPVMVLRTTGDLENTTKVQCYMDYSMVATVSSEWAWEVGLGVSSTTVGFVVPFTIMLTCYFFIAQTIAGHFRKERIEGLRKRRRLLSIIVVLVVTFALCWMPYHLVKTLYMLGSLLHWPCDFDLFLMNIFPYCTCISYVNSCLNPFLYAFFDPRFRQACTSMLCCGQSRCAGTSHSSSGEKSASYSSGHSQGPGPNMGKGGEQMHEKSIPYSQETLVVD
Type: cell-based
Excerpt: HTRF (homogeneous time resolved fluorescence) is a technology developed by Cisbio Bioassays based on TR-FRET (time-resolved fluorescence resonance energy transfer). Cisbio Bioassays has developed a wide selection of HTRF-based assays compatible with whole cells, thereby enabling functional assays to run under more physiological conditions. The IP-One assays are competitive immunoassays using cryptate-labeled anti-IP1 monoclonal antibody and d2-labeled IP1. IP1 is a relatively stable downstream metabolite of IP3, and accumulates in cells following Gq receptor activation.
cAMP kits based on a competitive immunoassay using cryptate-labeled anti-cAMP antibody and d2-labeled cAMP were used to assay the effects of APJ compounds of the present invention. […] Cells are treated with […] doxycycline and seeded in all white 96 well plates @ 40 k/well overnight.

Compound	percent intrinsic activity at 0.3 µM [%]
CCCCCCCCCCCCCCCC(=O)N[C@H](C(=O)N[C@@H](Cc1ccccc1)C(=O)N[C@@H](Cc1ccccc1)C(=O)N[C@@H](CCCNC(=N)N)C(=O)N[C@@H](CO)C(=O)N[C@@H](CO)C(=O)N[C@@H](CCC(=O)O)C(=O)N[C@H](CCCCN)C(=O)N[C@@H](CCCNC(=N)N)C(=O)N[C@@H](CCCNC(=N)N)C(=O)N[C@@H](CO)C(=O)N[C@@H](C)C(=O)N[C@@H](CC(=O)O)C(=O)N[C@H](C(=O)N[C@@H](Cc1ccccc1)C(=O)N[C@H](C(N)=O)[C@@H](C)CC)[C@@H](C)CC)[C@@H](C)O [Compound 2] (Palmitoyl-TFFRSSE[dK]RRSADIFI-NH2)	59
CCCCCCCCCCCCCCCC(=O)N[C@@H](Cc1c[nH]cn1)C(=O)N[C@H](C(=O)N[C@@H](Cc1ccccc1)C(=O)N[C@@H](CCCNC(=N)N)C(=O)N[C@@H](CO)C(=O)N[C@@H](CO)C(=O)N[C@@H](CCC(=O)O)C(=O)N[C@H](CCCCN)C(=O)N[C@@H](CCCNC(=N)N)C(=O)N[C@@H](CCCNC(=N)N)C(=O)N[C@@H](CO)C(=O)N[C@@H](C)C(=O)N[C@@H](CC(=O)O)C(=O)N[C@H](C(=O)N[C@@H](Cc1ccccc1)C(=O)N[C@H](C(N)=O)[C@@H](C)CC)[C@@H](C)CC)C(C)C [Compound 7] (Palmitoyl-HVFRSSE[dK]RRSADIFI-NH2)	50
CCCCCCCCCCCCCCCC(=O)N[C@H](C(=O)N[C@@H](Cc1c[nH]cn1)C(=O)N[C@@H](Cc1ccccc1)C(=O)N[C@@H](CCCNC(=N)N)C(=O)N[C@@H](CO)C(=O)N[C@@H](CO)C(=O)N[C@@H](CCC(=O)O)C(=O)N[C@H](CCCCN)C(=O)N[C@@H](CCCNC(=N)N)C(=O)N[C@@H](CCCNC(=N)N)C(=O)N[C@@H](CO)C(=O)N[C@@H](C)C(=O)N[C@@H](CC(=O)O)C(=O)N[C@H](C(=O)N[C@@H](Cc1ccccc1)C(=O)N[C@H](C(N)=O)[C@@H](C)CC)[C@@H](C)CC)[C@@H](C)O [Compound 8] (Palmitoyl-THFRSSE[dK]RRSADIFI-NH2)	63
CCCCCCCCCCCCCCCC(=O)N[C@H](C(=O)N[C@H](C(=O)N[C@@H](Cc1ccccc1)C(=O)N[C@@H](Cc1c[nH]cn1)C(=O)N[C@@H](CO)C(=O)N[C@@H](CO)C(=O)N[C@@H](CCC(=O)O)C(=O)N[C@H](CCCCN)C(=O)N[C@@H](CCCNC(=N)N)C(=O)N[C@@H](CCCNC(=N)N)C(=O)N[C@@H](CO)C(=O)N[C@@H](C)C(=O)N[C@@H](CC(=O)O)C(=O)N[C@H](C(=O)N[C@@H](Cc1ccccc1)C(=O)N[C@H](C(N)=O)[C@@H](C)CC)[C@@H](C)CC)C(C)C)[C@@H](C)O [Compound 10] (Palmitoyl-TVFHSSE[dK]RRSADIFI-NH2)	55
CCCCCCCCCCCCCCCC(=O)N[C@H](C(=O)N[C@H](C(=O)N[C@@H](Cc1ccccc1)C(=O)N[C@@H](CCCNC(=N)N)C(=O)N[C@@H](CO)C(=O)N[C@@H](CO)C(=O)N[C@@H](Cc1c[nH]cn1)C(=O)N[C@H](CCCCN)C(=O)N[C@@H](CCCNC(=N)N)C(=O)N[C@@H](CCCNC(=N)N)C(=O)N[C@@H](CO)C(=O)N[C@@H](C)C(=O)N[C@@H](CC(=O)O)C(=O)N[C@H](C(=O)N[C@@H](Cc1ccccc1)C(=O)N[C@H](C(N)=O)[C@@H](C)CC)[C@@H](C)CC)C(C)C)[C@@H](C)O [Compound 12] (Palmitoyl-TVFRSSH[dK]RRSADIFI-NH2)	73
CCCCCCCCCCCCCCCC(=O)N[C@H](C(=O)N[C@H](C(=O)N[C@@H](Cc1ccccc1)C(=O)N[C@@H](CCCNC(=N)N)C(=O)N[C@@H](CO)C(=O)N[C@@H](CO)C(=O)N[C@@H](CCC(=O)O)C(=O)N[C@H](CCCCN)C(=O)N[C@@H](Cc1c[nH]cn1)C(=O)N[C@@H](CCCNC(=N)N)C(=O)N[C@@H](CO)C(=O)N[C@@H](C)C(=O)N[C@@H](CC(=O)O)C(=O)N[C@H](C(=O)N[C@@H](Cc1ccccc1)C(=O)N[C@H](C(N)=O)[C@@H](C)CC)[C@@H](C)CC)C(C)C)[C@@H](C)O [Compound 13] (Palmitoyl-TVFRSSE[dK]HRSADIFI-NH2)	56
CCCCCCCCCCCCCCCC(=O)N[C@H](C(=O)N[C@H](C(=O)N[C@@H](Cc1ccccc1)C(=O)N[C@@H](CCC(N)=O)C(=O)N[C@@H](CO)C(=O)N[C@@H](CO)C(=O)N[C@@H](CCC(=O)O)C(=O)N[C@H](CCCCN)C(=O)N[C@@H](CCCNC(=N)N)C(=O)N[C@@H](CCCNC(=N)N)C(=O)N[C@@H](CO)C(=O)N[C@@H](C)C(=O)N[C@@H](CC(=O)O)C(=O)N[C@H](C(=O)N[C@@H](Cc1ccccc1)C(=O)N[C@H](C(N)=O)[C@@H](C)CC)[C@@H](C)CC)C(C)C)[C@@H](C)O [Compound 22] (Palmitoyl-TVFQSSE[dK]RRSADIFI-NH2)	59
CCCCCCCCCCCCCCCC(=O)N[C@H](C(=O)N[C@H](C(=O)N[C@@H](Cc1ccccc1)C(=O)N[C@@H](CCCNC(=N)N)C(=O)N[C@@H](CCC(N)=O)C(=O)N[C@@H](CO)C(=O)N[C@@H](CCC(=O)O)C(=O)N[C@H](CCCCN)C(=O)N[C@@H](CCCNC(=N)N)C(=O)N[C@@H](CCCNC(=N)N)C(=O)N[C@@H](CO)C(=O)N[C@@H](C)C(=O)N[C@@H](CC(=O)O)C(=O)N[C@H](C(=O)N[C@@H](Cc1ccccc1)C(=O)N[C@H](C(N)=O)[C@@H](C)CC)[C@@H](C)CC)C(C)C)[C@@H](C)O [Compound 23] (Palmitoyl-TVFRQSE[dK]RRSADIFI-NH2)	55

Next, values leading:

percent intrinsic activity at 0.3 µM [%]	Compound
45	CCCCCCCCCCCCCCCC(=O)N[C@H](C(=O)N[C@H](C(=O)N[C@@H](Cc1ccccc1)C(=O)N[C@@H](CCCNC(=N)N)C(=O)N[C@@H](CO)C(=O)N[C@@H](CO)C(=O)N[C@@H](CCC(N)=O)C(=O)N[C@H](CCCCN)C(=O)N[C@@H](CCCNC(=N)N)C(=O)N[C@@H](CCCNC(=N)N)C(=O)N[C@@H](CO)C(=O)N[C@@H](C)C(=O)N[C@@H](CC(=O)O)C(=O)N[C@H](C(=O)N[C@@H](Cc1ccccc1)C(=O)N[C@H](C(N)=O)[C@@H](C)CC)[C@@H](C)CC)C(C)C)[C@@H](C)O [Compound 25] (Palmitoyl-TVFRSSQ[dK]RRSADIFI-NH2)
44	CCCCCCCCCCCCCCCC(=O)N[C@H](C(=O)N[C@@H](CC(=O)O)C(=O)N[C@@H](Cc1ccccc1)C(=O)N[C@@H](CCCNC(=N)N)C(=O)N[C@@H](CO)C(=O)N[C@@H](CO)C(=O)N[C@@H](CCC(=O)O)C(=O)N[C@H](CCCCN)C(=O)N[C@@H](CCCNC(=N)N)C(=O)N[C@@H](CCCNC(=N)N)C(=O)N[C@@H](CO)C(=O)N[C@@H](C)C(=O)N[C@@H](CC(=O)O)C(=O)N[C@H](C(=O)N[C@@H](Cc1ccccc1)C(=O)N[C@H](C(N)=O)[C@@H](C)CC)[C@@H](C)CC)[C@@H](C)O [Compound 34] (Palmitoyl-TDFRSSE[dK]RRSADIFI-NH2)
49	CCCCCCCCCCCCCCCC(=O)N[C@H](C(=O)N[C@H](C(=O)N[C@@H](Cc1ccccc1)C(=O)N[C@@H](CCCNC(=N)N)C(=O)N[C@@H](CC(=O)O)C(=O)N[C@@H](CO)C(=O)N[C@@H](CCC(=O)O)C(=O)N[C@H](CCCCN)C(=O)N[C@@H](CCCNC(=N)N)C(=O)N[C@@H](CCCNC(=N)N)C(=O)N[C@@H](CO)C(=O)N[C@@H](C)C(=O)N[C@@H](CC(=O)O)C(=O)N[C@H](C(=O)N[C@@H](Cc1ccccc1)C(=O)N[C@H](C(N)=O)[C@@H](C)CC)[C@@H](C)CC)C(C)C)[C@@H](C)O [Compound 36] (Palmitoyl-TVFRDSE[dK]RRSADIFI-NH2)
50	CCCCCCCCCCCCCCCC(=O)N[C@H](C(=O)N[C@H](C(=O)N[C@@H](Cc1ccccc1)C(=O)N[C@@H](CCCNC(=N)N)C(=O)N[C@@H](CO)C(=O)N[C@@H](CC(=O)O)C(=O)N[C@@H](CCC(=O)O)C(=O)N[C@H](CCCCN)C(=O)N[C@@H](CCCNC(=N)N)C(=O)N[C@@H](CCCNC(=N)N)C(=O)N[C@@H](CO)C(=O)N[C@@H](C)C(=O)N[C@@H](CC(=O)O)C(=O)N[C@H](C(=O)N[C@@H](Cc1ccccc1)C(=O)N[C@H](C(N)=O)[C@@H](C)CC)[C@@H](C)CC)C(C)C)[C@@H](C)O [Compound 37] (Palmitoyl-TVFRSDE[dK]RRSADIFI-NH2)
83	CCCCCCCCCCCCCCCC(=O)N1CCC[C@H]1C(=O)N[C@H](C(=O)N[C@@H](Cc1ccccc1)C(=O)N[C@@H](CCCNC(=N)N)C(=O)N[C@@H](CO)C(=O)N[C@@H](CO)C(=O)N[C@@H](CCC(=O)O)C(=O)N[C@H](CCCCN)C(=O)N[C@@H](CCCNC(=N)N)C(=O)N[C@@H](CCCNC(=N)N)C(=O)N[C@@H](CO)C(=O)N[C@@H](C)C(=O)N[C@@H](CC(=O)O)C(=O)N[C@H](C(=O)N[C@@H](Cc1ccccc1)C(=O)N[C@H](C(N)=O)[C@@H](C)CC)[C@@H](C)CC)C(C)C [Compound 42] (Palmitoyl-PVFRSSE[dK]RRSADIFI-NH2)
39	CCCCCCCCCCCCCCCC(=O)N[C@H](C(=O)N1CCC[C@H]1C(=O)N[C@@H](Cc1ccccc1)C(=O)N[C@@H](CCCNC(=N)N)C(=O)N[C@@H](CO)C(=O)N[C@@H](CO)C(=O)N[C@@H](CCC(=O)O)C(=O)N[C@H](CCCCN)C(=O)N[C@@H](CCCNC(=N)N)C(=O)N[C@@H](CCCNC(=N)N)C(=O)N[C@@H](CO)C(=O)N[C@@H](C)C(=O)N[C@@H](CC(=O)O)C(=O)N[C@H](C(=O)N[C@@H](Cc1ccccc1)C(=O)N[C@H](C(N)=O)[C@@H](C)CC)[C@@H](C)CC)[C@@H](C)O [Compound 43] (Palmitoyl-TPFRSSE[dK]RRSADIFI-NH2)
